Assay results reported in patent US11648254B2 (Kumquat Biosciences Inc., priority 2021, dated 2023).
Like-named read-outs stand apart in the source and are kept apart here.

What was measured:
[1] = test system: NCI-H1975 cells (EGFR T790M L858R); experiment: EGFR-SOS cellular inhibition assay (CellTiter-Glo, 3D); assay type: cell-based; conditions: Homo sapiens
[2] = test system: MIA PaCa-2 cells (K-Ras G12C); experiment: Ras-SOS cellular growth inhibition assay (CellTiter-Glo, 3D); assay type: cell-based; conditions: Homo sapiens
Procedure, shortened: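 MIA PaCa-2 cells grown in ultra-low-attachment plates (3D) in DMEM/Ham's F12 with 10% FCS and 2.5% horse serum, treated the day after seeding with a 9-point 3-fold compound series for about 5 days. Viability by CellTiter-Glo luminescence; IC50 from four-parameter fit.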

[3] = target: SOS1 (Homo sapiens (Human), UniProt Q07889); experiment: Ras-SOS interaction assay (HTRF); assay type: biochemical
SOS1, sequence (Q07889 564-1049): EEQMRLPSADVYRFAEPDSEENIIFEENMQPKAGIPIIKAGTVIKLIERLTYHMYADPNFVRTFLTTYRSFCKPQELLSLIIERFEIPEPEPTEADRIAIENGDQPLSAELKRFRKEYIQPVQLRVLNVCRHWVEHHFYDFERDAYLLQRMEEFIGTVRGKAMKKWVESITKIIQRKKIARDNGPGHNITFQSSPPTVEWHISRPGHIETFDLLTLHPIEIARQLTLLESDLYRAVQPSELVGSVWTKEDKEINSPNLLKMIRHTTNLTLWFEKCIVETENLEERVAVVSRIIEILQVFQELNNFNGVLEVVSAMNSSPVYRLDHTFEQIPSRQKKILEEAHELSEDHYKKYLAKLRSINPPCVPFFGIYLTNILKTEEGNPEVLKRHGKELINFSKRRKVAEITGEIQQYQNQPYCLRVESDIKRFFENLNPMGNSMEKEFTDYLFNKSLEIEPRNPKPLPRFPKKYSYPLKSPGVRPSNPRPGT

[4] = 120 h, NCI-H1975, 3D proliferation, about 5 days, read-out: Bio-Cell-Prolif-3D (H1975 IC50)
[5] = MIA PaCa-2, 120 h, MIA PaCa-2, 3D proliferation, about 5 days, read-out: Bio-Cell-Prolif-3D (MiaPaca2 IC50)
[6] = K-RasG13D utilized, read-out: IC50 inhibition of SOS
[7] = K-RasG13D, read-out: IC50 value against SOS1
[8] = NCI-H1975, EGFR T790M L858R, read-out: IC50 in inhibiting growth of NCI-H1975 cell line
[9] = MIA PaCa-2, MIA PaCa-2, read-out: IC50 in inhibiting MIA PaCa-2 cell growth

`COc1nc2nc(C)nc(N[C@H](C)c3cccc(C(F)(F)F)c3F)c2cc1C1CCN(C(=O)C2CN(C)CCO2)CC1` (stereo partly drawn) [Compound 167, (4-(4-(((R)-1-(2-fluoro-3-(trifluoromethyl)phenyl)ethyl)amino)-7-methoxy-2-methylpyrido[2,3-d]pyrimidin-6-yl)piperidin-1-yl)(4-methylmorpholin-2-yl)methanone] showed an IC50 [1, 4] of no more than 1000 nM, an IC50 [2, 5] of 1000 to 10000 nM and an IC50 [3, 6] of less than 100 nM. The IC50 [3, 7] was less than 50 nM.

Compound `COc1nc2nc(C)nc(N[C@H](C)c3cccc(C(F)(F)C(C)(C)O)c3F)c2cc1N1CCS(=O)(=O)CC1` [Compound 169, (R)-4-(4-((1-(3-(1,1-difluoro-2-hydroxy-2-methylpropyl)-2-fluorophenyl)ethyl)amino)-7-methoxy-2-methylpyrido[2,3-d]pyrimidin-6-yl)thiomorpholine 1,1-dioxide] has an IC50 [1, 4] of no more than 1000 nM, an IC50 [1, 8] of less than 500 nM and an IC50 [2, 5] of no more than 1000 nM. For the same compound, the IC50 [2, 9] was less than 500 nM, the IC50 [3, 6] was less than 100 nM and the IC50 [3, 7] was less than 50 nM.

For `COc1nc2nc(C)nc(N[C@H](C)c3cccc(C(F)(F)CCC4CNC4)c3F)c2cc1C1(C#N)CC1` [Compound 172, (R)-1-(4-((1-(3-(3-(azetidin-3-yl)-1,1-difluoropropyl)-2-fluorophenyl)ethyl)amino)-7-methoxy-2-methylpyrido[2,3-d]pyrimidin-6-yl)cyclopropane-1-carbonitrile], the IC50 [1, 4] was no more than 1000 nM, the IC50 [1, 8] was less than 500 nM and the IC50 [2, 5] was 1000 to 10000 nM. It also gave an IC50 [3, 6] of less than 100 nM and an IC50 [3, 7] of less than 50 nM.

`COc1nc2nc(C)nc(N[C@H](C)c3cccc(C(F)(F)C(C)(C)O)c3)c2cc1C1CCS(=O)(=O)CC1` [Compound 173, (R)-4-(4-((1-(3-(1,1-difluoro-2-hydroxy-2-methylpropyl)phenyl)ethyl)amino)-7-methoxy-2-methylpyrido[2,3-d]pyrimidin-6-yl)tetrahydro-2H-thiopyran 1,1-dioxide] gave an IC50 [1, 4] of no more than 1000 nM, an IC50 [1, 8] of less than 500 nM and an IC50 [2, 5] of 1000 to 10000 nM. The IC50 [3, 6] was less than 100 nM and the IC50 [3, 7] was less than 50 nM.

Compound `COc1nc2nc(C)nc(N[C@H](C)c3cccc(C(F)(F)CO)c3F)c2cc1C1CCS(=O)(=O)CC1` [Compound 174, (R)-4-(4-((1-(3-(1,1-difluoro-2-hydroxyethyl)-2-fluorophenyl)ethyl)amino)-7-methoxy-2-methylpyrido[2,3-d]pyrimidin-6-yl)tetrahydro-2H-thiopyran 1,1-dioxide] has an IC50 [1, 4] of no more than 1000 nM, an IC50 [1, 8] of less than 500 nM and an IC50 [2, 5] of no more than 1000 nM. For the same compound, the IC50 [2, 9] was less than 500 nM, the IC50 [3, 6] was less than 100 nM and the IC50 [3, 7] was less than 50 nM.

`COc1nc2nc(C)nc(N[C@H](C)c3cccc(C(F)(F)CCC4CN(C(C)C)C4)c3F)c2cc1C1(C#N)CC1` [Compound 176, (R)-1-(4-((1-(3-(1,1-difluoro-3-(1-isopropylazetidin-3-yl)propyl)-2-fluorophenyl)ethyl)amino)-7-methoxy-2-methylpyrido[2,3-d]pyrimidin-6-yl)cyclopropane-1-carbonitrile] showed an IC50 [1, 4] of no more than 1000 nM, an IC50 [1, 8] of less than 500 nM and an IC50 [2, 5] of no more than 1000 nM. It also gave an IC50 [2, 9] of less than 500 nM, an IC50 [3, 6] of less than 100 nM and an IC50 [3, 7] of less than 50 nM.

For `COc1nc2nc(C)nc(N[C@H](C)c3cccc(C(F)(F)CCC4CN(C)C4)c3F)c2cc1C1(C#N)CC1` [Compound 177, (R)-1-(4-((1-(3-(1,1-difluoro-3-(1-methylazetidin-3-yl)propyl)-2-fluorophenyl)ethyl)amino)-7-methoxy-2-methylpyrido[2,3-d]pyrimidin-6-yl)cyclopropane-1-carbonitrile], the IC50 [1, 4] was no more than 1000 nM, the IC50 [1, 8] was less than 500 nM and the IC50 [2, 5] was no more than 1000 nM. For the same compound, the IC50 [2, 9] was less than 500 nM, the IC50 [3, 6] was less than 100 nM and the IC50 [3, 7] was less than 50 nM.

Work on `Cc1nc(N[C@H](C)c2cccc(C(F)(F)F)c2C)c2cc(C3(C#N)CC3)c(N3CCN(C(C)C)CC3)nc2n1` [Compound 178, (R)-1-(7-(4-isopropylpiperazin-1-yl)-2-methyl-4-((1-(2-methyl-3-(trifluoromethyl)phenyl)ethyl)amino)pyrido[2,3-d]pyrimidin-6-yl)cyclopropane-1-carbonitrile] yielded an IC50 [1, 4] of 1000 to 10000 nM, an IC50 [2, 5] of no more than 1000 nM and an IC50 [2, 9] of less than 500 nM. For the same compound, the IC50 [3, 6] was less than 100 nM and the IC50 [3, 7] was less than 50 nM.

`COc1nc2nc(C)nc(N[C@H](C)c3cccc(C(F)(F)CO)c3)c2cc1C1(C#N)CC1` [Compound 179, (R)-1-(4-((1-(3-(1,1-difluoro-2-hydroxyethyl)phenyl)ethyl)amino)-7-methoxy-2-methylpyrido[2,3-d]pyrimidin-6-yl)cyclopropane-1-carbonitrile] showed an IC50 [1, 4] of no more than 1000 nM, an IC50 [1, 8] of less than 500 nM and an IC50 [2, 5] of no more than 1000 nM. For the same compound, the IC50 [2, 9] was less than 500 nM, the IC50 [3, 6] was less than 100 nM and the IC50 [3, 7] was less than 50 nM.

For `COc1nc2nc(C)nc(N[C@H](C)c3cccc(C(F)(F)CCC4CN(C)C4)c3F)c2cc1C1CCS(=O)(=O)CC1` [Compound 180, (R)-4-(4-((1-(3-(1,1-difluoro-3-(1-methylazetidin-3-yl)propyl)-2-fluorophenyl)ethyl)amino)-7-methoxy-2-methylpyrido[2,3-d]pyrimidin-6-yl)tetrahydro-2H-thiopyran 1,1-dioxide], the IC50 [1, 4] was no more than 1000 nM, the IC50 [1, 8] was less than 500 nM and the IC50 [2, 5] was no more than 1000 nM. For the same compound, the IC50 [2, 9] was less than 500 nM, the IC50 [3, 6] was less than 100 nM and the IC50 [3, 7] was less than 50 nM.

Compound `COc1nc2nc(C)nc(N[C@H](C)c3cccc(C(F)(F)CO)c3F)c2cc1N1CCN(C(C)C)CC1` [Compound 181, (R)-2,2-difluoro-2-(2-fluoro-3-(1-((6-(4-isopropylpiperazin-1-yl)-7-methoxy-2-methylpyrido[2,3-d]pyrimidin-4-yl)amino)ethyl)phenyl)ethan-1-ol] has an IC50 [1, 4] of no more than 1000 nM, an IC50 [1, 8] of less than 500 nM and an IC50 [2, 5] of no more than 1000 nM. It also gave an IC50 [2, 9] of less than 500 nM, an IC50 [3, 6] of less than 100 nM and an IC50 [3, 7] of less than 50 nM.

`Cc1nc(N[C@H](C)c2cccc(C(F)F)c2F)c2cc(N3CCS(=O)(=O)CC3)c(OC3COC3)nc2n1` [Compound 183, (R)-4-(4-((1-(3-(difluoromethyl)-2-fluorophenyl)ethyl)amino)-2-methyl-7-(oxetan-3-yloxy)pyrido[2,3-d]pyrimidin-6-yl)thiomorpholine 1,1-dioxide] was tested, and the IC50 [1, 4] was no more than 1000 nM, the IC50 [1, 8] was less than 500 nM and the IC50 [2, 5] was 1000 to 10000 nM. For the same compound, the IC50 [3, 6] was less than 100 nM and the IC50 [3, 7] was less than 50 nM.

Work on `COc1nc2ncnc(N[C@H](C)c3cccc(C(F)F)c3F)c2cc1C1(C#N)CC1` [Compound 184, (R)-1-(4-((1-(3-(difluoromethyl)-2-fluorophenyl)ethyl)amino)-7-methoxypyrido[2,3-d]pyrimidin-6-yl)cyclopropane-1-carbonitrile] yielded an IC50 [1, 4] of no more than 1000 nM, an IC50 [1, 8] of less than 500 nM and an IC50 [2, 5] of no more than 1000 nM. The IC50 [3, 6] was less than 100 nM.

For `COc1nc2ncnc(N[C@H](C)c3cccc(C(F)F)c3F)c2cc1C1(C(F)F)CC1` [Compound 185, (R)-N-(1-(3-(difluoromethyl)-2-fluorophenyl)ethyl)-6-(1-(difluoromethyl)cyclopropyl)-7-methoxypyrido[2,3-d]pyrimidin-4-amine], the IC50 [1, 4] was 1000 to 10000 nM, the IC50 [2, 5] was 1000 to 10000 nM and the IC50 [3, 6] was 100 to 1000 nM.

`CC(C)N1CCC(c2cc3c(N[C@H](C)c4cccc(C(F)F)c4F)ncnc3nc2OC2CN(C)C2)CC1` [Compound 187, (R)-N-(1-(3-(difluoromethyl)-2-fluorophenyl)ethyl)-6-(1-isopropylpiperidin-4-yl)-7-((1-methylazetidin-3-yl)oxy)pyrido[2,3-d]pyrimidin-4-amine] showed an IC50 [1, 4] of 1000 to 10000 nM, an IC50 [2, 5] of 1000 to 10000 nM and an IC50 [3, 6] of less than 100 nM. For the same compound, the IC50 [3, 7] was less than 50 nM.

For `CCN1CCN(c2cc3c(N[C@H](C)c4cccc(C(F)F)c4F)nc(C)nc3nc2NC2COC2)CC1` [Compound 188, (R)-N4-(1-(3-(difluoromethyl)-2-fluorophenyl)ethyl)-6-(4-ethylpiperazin-1-yl)-2-methyl-N7-(oxetan-3-yl)pyrido[2,3-d] pyrimidine-4,7-diamine], the IC50 [1, 4] was no more than 1000 nM, the IC50 [1, 8] was less than 500 nM and the IC50 [2, 5] was 1000 to 10000 nM. For the same compound, the IC50 [3, 6] was less than 100 nM and the IC50 [3, 7] was less than 50 nM.

For `COc1nc2ncnc(N[C@H](C)c3cccc(C(F)F)c3F)c2cc1C1CCN(C(C)C)CC1` [Compound 189, (R)-N-(1-(3-(difluoromethyl)-2-fluorophenyl)ethyl)-6-(1-isopropylpiperidin-4-yl)-7-methoxypyrido[2,3-d]pyrimidin-4-amine], the IC50 [1, 4] was no more than 1000 nM, the IC50 [2, 5] was 1000 to 10000 nM and the IC50 [3, 6] was less than 100 nM.

`Cc1nc(N[C@H](C)c2cccc(C(F)F)c2F)c2cc(C3(C(F)F)CC3)c(OC3CN(C)C3)nc2n1` [Compound 190, (R)-N-(1-(3-(difluoromethyl)-2-fluorophenyl)ethyl)-6-(1-(difluoromethyl)cyclopropyl)-2-methyl-7-((1-methylazetidin-3-yl)oxy)pyrido[2,3-d] pyrimidin-4-amine] gave an IC50 [1, 4] of no more than 1000 nM, an IC50 [1, 8] of less than 500 nM and an IC50 [2, 5] of no more than 1000 nM. The IC50 [2, 9] was less than 500 nM, the IC50 [3, 6] was less than 100 nM and the IC50 [3, 7] was less than 50 nM.

`Cc1nc(N[C@H](C)c2cccc(C(F)F)c2F)c2cc(C3CCS(=O)(=O)CC3)c(OC3CN(C)C3)nc2n1` [Compound 191, (R)-4-(4-((1-(3-(difluoromethyl)-2-fluorophenyl)ethyl)amino)-2-methyl-7-((1-methylazetidin-3-yl)oxy)pyrido[2,3-d]pyrimidin-6-yl)tetrahydro-2H-thiopyran 1,1-dioxide] showed an IC50 [1, 4] of 1000 to 10000 nM, an IC50 [2, 5] of 1000 to 10000 nM and an IC50 [3, 6] of less than 100 nM. For the same compound, the IC50 [3, 7] was less than 50 nM.

Compound `Cc1nc(N[C@H](C)c2cccc(C(F)F)c2F)c2cc(N3CCN(C(C)C)CC3)c(NC3COC3)nc2n1` [Compound 192, (R)-N4-(1-(3-(difluoromethyl)-2-fluorophenyl)ethyl)-6-(4-isopropylpiperazin-1-yl)-2-methyl-N7-(oxetan-3-yl)pyrido[2,3-d] pyrimidine-4,7-diamine] has an IC50 [1, 4] of no more than 1000 nM, an IC50 [2, 5] of 1000 to 10000 nM and an IC50 [3, 6] of less than 100 nM. It also gave an IC50 [3, 7] of less than 50 nM.
